{"source": "patent US10099993B2", "about": "“Metabotropic glutamate receptor positive allosteric modulators (PAMS) and uses thereof” (Sanford-Burnham Medical Research Institute, priority 2014, dated 2018)", "key": {"[1]": {"format": "in vitro ADME", "conditions": "rat, 1 h"}, "[2]": {"conditions": "100 μM, pH 7.2"}, "[3]": {"conditions": "rat, microsomes, 1 h"}, "[4]": {"target": "mGlu7 (Rattus norvegicus (Rat), UniProt P35400)", "test": "mGlu7 GIRK thallium flux assay", "format": "cell-based", "conditions": "full L-AP4 concentration-response ± 10 μM compound"}, "[5]": {"target": "mGlu4 (Rattus norvegicus (Rat), UniProt P31423)", "test": "mGlu4 GIRK thallium flux assay", "format": "cell-based", "conditions": "full agonist concentration-response ± 10 μM compound"}, "[6]": {"target": "mGlu6 (Rattus norvegicus (Rat), UniProt P35349)", "sequence (P35349 24-871)": "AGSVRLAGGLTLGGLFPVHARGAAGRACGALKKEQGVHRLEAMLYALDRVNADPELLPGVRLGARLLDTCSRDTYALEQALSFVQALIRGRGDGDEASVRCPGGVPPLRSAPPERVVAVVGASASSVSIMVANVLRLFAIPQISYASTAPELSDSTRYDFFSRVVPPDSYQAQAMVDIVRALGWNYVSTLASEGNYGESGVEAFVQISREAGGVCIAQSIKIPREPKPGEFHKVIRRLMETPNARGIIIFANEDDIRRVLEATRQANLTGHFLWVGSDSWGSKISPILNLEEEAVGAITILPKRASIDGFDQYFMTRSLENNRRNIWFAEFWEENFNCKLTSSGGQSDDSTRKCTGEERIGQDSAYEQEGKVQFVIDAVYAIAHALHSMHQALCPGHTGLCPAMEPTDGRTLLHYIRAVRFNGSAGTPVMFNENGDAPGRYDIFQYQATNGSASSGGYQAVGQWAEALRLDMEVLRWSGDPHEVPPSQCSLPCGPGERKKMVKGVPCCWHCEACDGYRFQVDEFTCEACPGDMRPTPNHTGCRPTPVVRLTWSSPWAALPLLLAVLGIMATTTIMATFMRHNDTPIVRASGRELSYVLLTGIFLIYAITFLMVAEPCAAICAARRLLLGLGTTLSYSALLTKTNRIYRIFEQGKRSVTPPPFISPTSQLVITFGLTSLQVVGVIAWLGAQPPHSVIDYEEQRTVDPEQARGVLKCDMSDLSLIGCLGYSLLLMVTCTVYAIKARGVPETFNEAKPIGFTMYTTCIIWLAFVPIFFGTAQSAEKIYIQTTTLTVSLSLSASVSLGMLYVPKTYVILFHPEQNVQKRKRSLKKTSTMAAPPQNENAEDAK", "test": "mGlu6 GIRK thallium flux assay", "format": "cell-based", "conditions": "full agonist concentration-response ± 10 μM compound"}, "[7]": {"conditions": "rat, in vivo, ip, 10 mg/kg"}, "[8]": {"target": "mGlu5 (Rattus norvegicus (Rat), UniProt P31424)", "sequence (P31424 21-1203)": "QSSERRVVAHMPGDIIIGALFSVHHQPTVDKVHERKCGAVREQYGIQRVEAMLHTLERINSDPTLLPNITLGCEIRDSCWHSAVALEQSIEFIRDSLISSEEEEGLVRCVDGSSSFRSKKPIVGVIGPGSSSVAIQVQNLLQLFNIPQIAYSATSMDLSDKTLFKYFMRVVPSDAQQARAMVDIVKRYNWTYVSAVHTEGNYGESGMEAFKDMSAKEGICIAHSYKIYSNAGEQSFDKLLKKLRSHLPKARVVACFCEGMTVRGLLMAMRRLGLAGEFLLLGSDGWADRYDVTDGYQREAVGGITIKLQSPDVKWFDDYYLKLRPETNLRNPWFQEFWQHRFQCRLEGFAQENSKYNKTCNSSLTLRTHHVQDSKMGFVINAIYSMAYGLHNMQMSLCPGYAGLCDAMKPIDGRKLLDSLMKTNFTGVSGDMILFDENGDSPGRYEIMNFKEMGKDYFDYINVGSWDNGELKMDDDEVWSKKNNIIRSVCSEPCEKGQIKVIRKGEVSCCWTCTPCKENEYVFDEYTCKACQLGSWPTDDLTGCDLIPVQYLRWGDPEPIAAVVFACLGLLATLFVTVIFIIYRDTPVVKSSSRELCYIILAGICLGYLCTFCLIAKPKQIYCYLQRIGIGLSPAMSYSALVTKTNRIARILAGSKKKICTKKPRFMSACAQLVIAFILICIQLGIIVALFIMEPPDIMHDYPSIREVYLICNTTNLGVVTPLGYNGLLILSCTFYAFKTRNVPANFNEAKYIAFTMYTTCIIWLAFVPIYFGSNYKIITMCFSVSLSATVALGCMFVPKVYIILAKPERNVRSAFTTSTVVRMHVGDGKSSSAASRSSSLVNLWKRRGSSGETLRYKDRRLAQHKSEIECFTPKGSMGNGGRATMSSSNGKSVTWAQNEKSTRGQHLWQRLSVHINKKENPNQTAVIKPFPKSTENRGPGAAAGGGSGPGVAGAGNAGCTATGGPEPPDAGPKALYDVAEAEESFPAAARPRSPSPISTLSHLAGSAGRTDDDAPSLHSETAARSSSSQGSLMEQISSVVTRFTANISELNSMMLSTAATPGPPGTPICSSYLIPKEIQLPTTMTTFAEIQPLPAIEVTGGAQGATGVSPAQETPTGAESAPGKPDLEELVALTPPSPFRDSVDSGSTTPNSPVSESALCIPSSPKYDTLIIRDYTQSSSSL", "test": "mGlu5 calcium assay", "format": "cell-based", "conditions": "full agonist concentration-response ± 10 μM compound"}, "[9]": {"target": "mGlu3 (Rattus norvegicus (Rat), UniProt P31422)", "sequence (P31422 23-879)": "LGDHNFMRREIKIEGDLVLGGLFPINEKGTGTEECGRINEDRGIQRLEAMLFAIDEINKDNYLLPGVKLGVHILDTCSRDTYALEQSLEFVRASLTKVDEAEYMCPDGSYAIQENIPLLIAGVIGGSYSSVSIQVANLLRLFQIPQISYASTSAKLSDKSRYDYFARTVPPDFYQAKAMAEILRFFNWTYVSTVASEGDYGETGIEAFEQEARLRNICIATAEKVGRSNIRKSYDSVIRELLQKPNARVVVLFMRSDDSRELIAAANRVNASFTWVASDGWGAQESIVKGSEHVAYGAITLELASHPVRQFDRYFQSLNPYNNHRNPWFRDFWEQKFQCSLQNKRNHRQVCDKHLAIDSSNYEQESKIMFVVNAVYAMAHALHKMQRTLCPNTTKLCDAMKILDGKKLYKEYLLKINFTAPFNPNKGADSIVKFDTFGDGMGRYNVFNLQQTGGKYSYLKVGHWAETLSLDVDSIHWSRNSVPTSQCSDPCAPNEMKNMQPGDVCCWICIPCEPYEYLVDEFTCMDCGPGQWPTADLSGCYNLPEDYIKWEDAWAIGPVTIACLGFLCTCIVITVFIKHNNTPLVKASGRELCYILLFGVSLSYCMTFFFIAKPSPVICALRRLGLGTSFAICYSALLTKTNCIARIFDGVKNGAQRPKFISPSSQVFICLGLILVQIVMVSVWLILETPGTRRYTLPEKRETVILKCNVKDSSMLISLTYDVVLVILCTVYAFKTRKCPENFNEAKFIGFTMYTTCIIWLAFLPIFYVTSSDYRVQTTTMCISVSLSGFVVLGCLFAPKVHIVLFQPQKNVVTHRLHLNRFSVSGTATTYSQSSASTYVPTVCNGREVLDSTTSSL", "test": "mGlu3 GIRK thallium flux assay;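 further: kinetic fluorescence slope read shortly after thallium plus agonist addition, scaled between vehicle and maximal agonist control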", "conditions": "for General activity at mGlu3: full agonist concentration-response ± 10 μM compound"}, "[10]": {"target": "mGlu8 (Rattus norvegicus (Rat), UniProt P70579)", "sequence (P70579 34-908)": "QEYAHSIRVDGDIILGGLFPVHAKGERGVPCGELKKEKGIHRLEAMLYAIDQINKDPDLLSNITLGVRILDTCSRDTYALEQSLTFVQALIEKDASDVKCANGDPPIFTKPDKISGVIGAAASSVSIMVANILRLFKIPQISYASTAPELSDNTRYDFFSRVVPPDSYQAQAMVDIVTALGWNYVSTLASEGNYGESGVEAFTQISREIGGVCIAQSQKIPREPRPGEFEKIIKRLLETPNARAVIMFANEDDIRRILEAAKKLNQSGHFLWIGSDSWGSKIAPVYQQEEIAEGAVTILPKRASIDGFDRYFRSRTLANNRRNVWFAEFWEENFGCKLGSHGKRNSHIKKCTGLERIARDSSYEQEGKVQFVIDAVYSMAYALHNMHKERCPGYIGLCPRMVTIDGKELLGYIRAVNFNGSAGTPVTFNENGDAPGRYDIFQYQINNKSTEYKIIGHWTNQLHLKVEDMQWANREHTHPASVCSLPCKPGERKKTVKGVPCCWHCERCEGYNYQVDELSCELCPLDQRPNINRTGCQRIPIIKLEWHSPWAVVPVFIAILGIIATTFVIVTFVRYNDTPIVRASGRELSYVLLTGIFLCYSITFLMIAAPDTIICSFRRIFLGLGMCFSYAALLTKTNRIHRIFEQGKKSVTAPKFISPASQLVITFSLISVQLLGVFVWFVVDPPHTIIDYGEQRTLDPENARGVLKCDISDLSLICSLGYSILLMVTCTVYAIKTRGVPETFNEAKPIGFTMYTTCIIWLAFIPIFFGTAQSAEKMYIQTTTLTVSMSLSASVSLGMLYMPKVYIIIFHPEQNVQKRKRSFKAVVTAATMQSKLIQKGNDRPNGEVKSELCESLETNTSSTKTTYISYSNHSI", "test": "mGlu8 GIRK thallium flux assay", "format": "cell-based", "conditions": "full agonist concentration-response ± 10 μM compound"}, "[11]": {"target": "mGlu1 (Rattus norvegicus (Rat), UniProt P23385)", "test": "mGlu1 calcium assay", "format": "cell-based", "conditions": "full agonist concentration-response ± 10 μM compound"}, "[12]": {"target": "Dopamine D5 (Homo sapiens (Human), UniProt P21918)", "test": "PDSP radioligand binding", "conditions": "Dopamine D5, 10 μM, displacement of radioligand"}, "[13]": {"target": "Adrenergic α2C (Homo sapiens (Human), UniProt P18825)", "test": "PDSP radioligand binding", "conditions": "displacement of radioligand"}, "[14]": {"target": "Serotonin (5-Hydroxytryptamine) 5-HT2A (Homo sapiens (Human), UniProt P28223)", "test": "PDSP radioligand binding", "conditions": "displacement of radioligand"}, "[15]": {"target": "mGlu2 (Rattus norvegicus (Rat), UniProt P31421)", "sequence (P31421 19-872)": "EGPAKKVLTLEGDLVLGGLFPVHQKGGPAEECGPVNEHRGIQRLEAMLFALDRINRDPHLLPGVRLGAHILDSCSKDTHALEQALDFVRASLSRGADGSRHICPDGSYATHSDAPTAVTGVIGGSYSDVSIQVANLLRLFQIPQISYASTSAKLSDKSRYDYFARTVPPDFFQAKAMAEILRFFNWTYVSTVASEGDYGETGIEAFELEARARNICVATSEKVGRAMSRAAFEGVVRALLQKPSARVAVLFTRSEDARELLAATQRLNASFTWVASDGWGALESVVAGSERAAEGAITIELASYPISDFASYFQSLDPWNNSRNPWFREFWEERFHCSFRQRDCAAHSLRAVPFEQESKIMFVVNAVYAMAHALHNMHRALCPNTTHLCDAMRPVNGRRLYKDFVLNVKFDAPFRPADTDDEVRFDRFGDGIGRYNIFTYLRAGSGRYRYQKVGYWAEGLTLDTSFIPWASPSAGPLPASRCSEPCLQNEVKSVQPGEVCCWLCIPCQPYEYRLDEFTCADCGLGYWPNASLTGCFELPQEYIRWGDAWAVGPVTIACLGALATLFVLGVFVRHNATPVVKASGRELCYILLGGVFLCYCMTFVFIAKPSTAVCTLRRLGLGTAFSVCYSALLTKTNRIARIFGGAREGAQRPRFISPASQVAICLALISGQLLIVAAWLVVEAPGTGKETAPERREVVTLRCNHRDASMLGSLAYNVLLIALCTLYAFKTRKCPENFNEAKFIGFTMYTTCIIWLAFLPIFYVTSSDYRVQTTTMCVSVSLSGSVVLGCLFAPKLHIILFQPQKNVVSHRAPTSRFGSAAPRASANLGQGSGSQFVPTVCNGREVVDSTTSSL", "test": "mGlu2 GIRK thallium flux assay;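 further: Cell-based assay, rate of fluorescence rise right after thallium plus agonist addition read on a kinetic imaging plate reader, normalized to vehicle and maximal agonist control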"}, "[16]": {"target": "Histamine H1 (Homo sapiens (Human), UniProt P35367)", "test": "PDSP radioligand binding", "conditions": "Histamine H1, 10 μM, displacement of radioligand"}, "[17]": {"target": "Dopamine D2 (Homo sapiens (Human), UniProt P14416)", "sequence (P14416 whole entry)": "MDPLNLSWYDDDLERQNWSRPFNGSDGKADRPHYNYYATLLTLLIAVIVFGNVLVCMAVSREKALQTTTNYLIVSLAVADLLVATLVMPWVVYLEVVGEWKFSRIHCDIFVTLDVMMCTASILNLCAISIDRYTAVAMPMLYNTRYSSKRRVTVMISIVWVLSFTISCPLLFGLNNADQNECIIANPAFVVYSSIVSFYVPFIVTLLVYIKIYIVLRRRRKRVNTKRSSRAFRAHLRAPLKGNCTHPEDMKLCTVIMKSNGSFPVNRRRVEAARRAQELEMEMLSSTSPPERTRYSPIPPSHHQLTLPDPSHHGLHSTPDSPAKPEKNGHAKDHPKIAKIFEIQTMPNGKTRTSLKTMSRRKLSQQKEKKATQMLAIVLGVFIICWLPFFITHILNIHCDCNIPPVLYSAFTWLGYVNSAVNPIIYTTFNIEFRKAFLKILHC", "test": "PDSP radioligand binding", "conditions": "Dopamine D2, 10 μM, displacement of radioligand"}, "[18]": {"target": "Muscarinic M4 (Homo sapiens (Human), UniProt P08173)", "test": "PDSP radioligand binding", "conditions": "Muscarinic M4, 10 μM, displacement of radioligand"}, "[19]": {"target": "Transporter, Serotonin (5-Hydroxytryptamine) (SERT) (Homo sapiens (Human), UniProt P31645)", "test": "PDSP radioligand binding", "conditions": "displacement of radioligand"}, "[20]": {"target": "Peripheral benzodiazepine receptor ([3H]PK11195) (Rattus norvegicus (Rat), UniProt P16257)", "test": "PDSP radioligand binding"}, "[21]": {"target": "Muscarinic M2 (Homo sapiens (Human), UniProt P08172)", "test": "PDSP radioligand binding", "conditions": "Muscarinic M2, 10 μM, displacement of radioligand"}, "[22]": {"test_system": "forty-five CNS receptors", "test": "CNS receptors panel (NIMH PDSP), radioligand binding", "conditions": "10 μM"}, "[23]": {"test": "In vivo PK in rats, i.p. administration", "conditions": "rats, i.p., 10 mg/kg, Tmax 30 min"}}, "data": [{"smiles": "COc1cc(C(=O)O)ccc1OCCCCOc1ccc(C(=O)CC2CCCC2)c(O)c1C", "note": "[Compound 45, 4-{4-[4-(2-Cyclopentylacetyl)-3-hydroxy-2-methylphenoxy]butoxy}-methoxybenzoic acid]", "values": [{"measurement": "Plasma Stability, percent remaining", "setting": "[1]", "value": 100, "unit": "%"}, {"measurement": "PAMPA (LogPapp)", "setting": "[2]", "value": "−6.54"}, {"measurement": "Microsomal stability, percent remaining", "setting": "[3]", "value": 31, "unit": "%"}]}, {"smiles": "COc1cc(C(=O)O)ccc1OCCCCOc1ccc(C(=O)CC(C)(C)C)c(O)c1C", "note": "[compound 73]", "values": [{"measurement": "General activity at mGlu7", "setting": "[4]", "value": "inactive^b"}, {"measurement": "General activity at mGlu4", "setting": "[5]", "value": "inactive^b"}, {"measurement": "General activity at mGlu6", "setting": "[6]", "value": "PAM"}, {"measurement": "PAMPA (LogPapp)", "setting": "[2]", "value": "−5.46"}, {"measurement": "Brain: Plasma", "setting": "[7]", "value": "0.02 ± 0.01"}, {"measurement": "General activity at mGlu5", "setting": "[8]", "value": "inactive^b"}, {"measurement": "General activity at mGlu3", "setting": "[9]", "value": "Ago-PAM"}, {"measurement": "General activity at mGlu8", "setting": "[10]", "value": "inactive^b"}, {"measurement": "General activity at mGlu1", "setting": "[11]", "value": "inactive^b"}]}, {"smiles": "COc1ccc(C(=O)O)cc1OCCCCOc1ccc(C(=O)CC(C)(C)C)c(O)c1C", "note": "[compound 72, 3-(4-(4-(3,3-Dimethylbutanoyl)-3-hydroxy-2-methylphenoxy)butoxy)-4-methoxybenzoic acid]", "values": [{"measurement": "inhibition at 10 µM", "setting": "[12]", "value": -0.9, "unit": "%"}, {"measurement": "inhibition at 10 µM", "setting": "[13]", "value": 0.6, "unit": "%"}, {"measurement": "General activity at mGlu7", "setting": "[4]", "value": "inactive^b"}, {"measurement": "inhibition at 10 µM", "setting": "[14]", "value": -0.6, "unit": "%"}, {"measurement": "General activity at mGlu4", "setting": "[5]", "value": "inactive^b"}, {"measurement": "General activity at mGlu2", "setting": "[15]; full agonist concentration-response ± 10 μM compound", "value": "Ago-PAM"}, {"measurement": "Emin, minimal response of the concentration-response of agonist", "setting": "[15]; mGlu2, 10 μM compound", "value": "Emin = 72%"}, {"measurement": "General activity at mGlu6", "setting": "[6]", "value": "inactive^b"}, {"measurement": "inhibition at 10 µM", "setting": "[16]", "value": 0.2, "unit": "%"}, {"measurement": "inhibition at 10 µM", "setting": "[17]", "value": 1, "unit": "%"}, {"measurement": "inhibition at 10 µM", "setting": "[18]", "value": -0.9, "unit": "%"}, {"measurement": "inhibition at 10 µM", "setting": "[19]", "value": 0.3, "unit": "%"}, {"measurement": "General activity at mGlu5", "setting": "[8]", "value": "inactive^b"}, {"measurement": "inhibition at 10 µM", "setting": "[20]", "value": 1, "unit": "%"}, {"measurement": "General activity at mGlu3", "setting": "[9]", "value": "Ago-PAM"}, {"measurement": "Emin, minimal response of the concentration-response of agonist", "setting": "[9]; mGlu3, 10 μM compound", "value": "Emin = 54%"}, {"measurement": "inhibition at 10 µM", "setting": "[21]", "value": -1, "unit": "%"}, {"measurement": "General activity at mGlu8", "setting": "[10]", "value": "inactive^b"}, {"measurement": "binding activity at forty-five CNS receptors", "setting": "[22]", "value": "no binding activity was detected"}, {"measurement": "General activity at mGlu1", "setting": "[11]", "value": "inactive^b"}, {"measurement": "Plasma, maximum concentration", "setting": "[23]", "value": "2.44 ± 2.19", "unit": "µM"}]}]}
